IC50 and inhibition data for eight molecules are collected here from patent publication US20120201749A1, “NP-1 Antagonists and Their Therapeutic Use” (priority 2009, published 2012).

The assay has as its target NP-1 (Homo sapiens, UniProt O14786). Nature of the assay: Biotinylated-VEGF-A165 (bt-VEGF-A165) binding to NP-1. The following applies: for inhibition at 30 µM: 30 μM compound, read-out: Screen (% inhibition at 30 μM); for inhibition at 3 µM: 3 μM compound, read-out: Screen (% inhibition at 3 μM). As for the experimental part: Human prostate carcinoma DU145 cells were cultured in growth medium (RPMI 1640 containing 10% FBS and L-glutamine). DU145 cells were seeded at the density of 2×10^4 cells per well (96-well plates) in 0.1 ml growth medium and transfected with adenovirus vectors containing the full-length open-reading frame of human NP-1. The Ad.NP-1-transfected cells grew for 2 days prior to a binding assay.
Confluent Ad.NP-1-transfected cells in 96-well plates were washed twice with phosphate-buffered saline (PBS). The various concentrations of compounds diluted in binding medium (Dulbecco's modified Eagle's medium, 25 mM HEPES pH 7.3 containing 0.1% BSA) were added, followed by addition of 2 nM of bt-VEGF-A165. After 2 h of incubation at room temperature, the medium was aspirated and washed three times with PBS. The bound bt-VEGF-A165 to NP-1 was detected by streptavidin-horseradish peroxidase conjugates and the enzyme substrate, and measured using a Tecan Genios plate reader at A450 nm with a reference wavelength at A595 nm. Non-specific binding was determined in the presence of 100-fold excess unlabelled VEGF-A165.
The 96-well plates were pre-coated with NP1 protein at 3 μg/ml overnight at 4° C. On the following day, the plates were treated with blocking buffer (PBS containing 1% BSA) and washed three times with wash buffer (PBS containing 0.1% Tween-20). The various concentrations of compounds diluted in PBS containing 1% DMSO were added, followed by addition of 0.25 nM of bt-VEGF-A165. After 2 h of incubation at room temperature, the plates were washed three times with wash buffer. The bound bt-VEGF-A165 to NP-1 was detected by streptavidin-horseradish peroxidase conjugates and the enzyme substrate, and measured using a Tecan Genios plate reader at A450 nm with a reference wavelength at A595 nm. Nonspecific binding was determined in the absence of NP-1 coated wells of the plates.

Sequence of NP-1 (O14786 22-923): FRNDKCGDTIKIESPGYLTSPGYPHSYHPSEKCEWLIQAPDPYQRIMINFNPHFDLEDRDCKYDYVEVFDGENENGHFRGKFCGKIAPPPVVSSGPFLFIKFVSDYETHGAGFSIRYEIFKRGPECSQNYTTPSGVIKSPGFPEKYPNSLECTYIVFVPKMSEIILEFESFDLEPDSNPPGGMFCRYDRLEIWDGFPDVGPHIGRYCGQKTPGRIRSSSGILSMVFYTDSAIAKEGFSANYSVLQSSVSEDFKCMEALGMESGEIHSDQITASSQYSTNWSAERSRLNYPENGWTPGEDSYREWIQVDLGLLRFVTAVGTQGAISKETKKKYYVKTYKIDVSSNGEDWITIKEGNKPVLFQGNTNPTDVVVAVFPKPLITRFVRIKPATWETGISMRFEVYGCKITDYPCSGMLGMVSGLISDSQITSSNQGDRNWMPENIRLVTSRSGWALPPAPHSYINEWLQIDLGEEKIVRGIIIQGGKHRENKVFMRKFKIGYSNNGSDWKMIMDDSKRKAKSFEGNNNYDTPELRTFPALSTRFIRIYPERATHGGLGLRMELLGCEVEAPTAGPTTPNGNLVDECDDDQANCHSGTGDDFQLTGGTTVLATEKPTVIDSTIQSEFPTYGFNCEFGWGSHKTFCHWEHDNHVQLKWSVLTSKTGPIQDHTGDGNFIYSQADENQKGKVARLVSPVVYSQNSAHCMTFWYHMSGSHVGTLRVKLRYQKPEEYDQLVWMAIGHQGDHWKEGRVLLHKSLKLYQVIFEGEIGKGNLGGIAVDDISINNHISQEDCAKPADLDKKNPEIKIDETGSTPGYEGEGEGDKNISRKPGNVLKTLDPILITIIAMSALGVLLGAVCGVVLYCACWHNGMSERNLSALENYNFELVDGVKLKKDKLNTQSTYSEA

With `N=C(N)NCCC[C@H](NC(=O)c1sccc1NS(=O)(=O)c1cc(-c2cccc(CN3CCN(Cc4cccnc4)CC3)c2)cc2c1OCC2)C(=O)O` [Compound 11, (S)-5-Guanidino-2-[(3-{5-[3-(4-pyridin-3-ylmethyl-piperazin-1-ylmethyl)-phenyl]-2,3-dihydro-benzofuran-7-sulfonylamino}-thiophene-2-carbonyl)-amino]-pentanoic acid], the IC50 was found to be 1500 nM and the inhibition at 30 µM came out at 98%. `N=C(N)NCCC[C@H](NC(=O)c1sccc1NS(=O)(=O)c1cc(-c2cccc(CNCc3cccnc3)c2)cc2c1OCC2)C(=O)O` [Compound 12, (S)-5-Guanidino-2-({3-[5-(3-{[(pyridin-3-ylmethyl)-amino]-methyl}-phenyl)-2,3-dihydro-benzofuran-7-sulfonyl-amino]-thiophene-2-carbonyl}-amino)-pentanoic acid]: the IC50 is 1200 nM and the inhibition at 30 µM amounted to 96%. As to `N=C(N)NCCC[C@H](NC(=O)c1sccc1NS(=O)(=O)c1cccc(NCc2csc(N3CCN(c4ncncn4)CC3)n2)c1)C(=O)O` [Compound 75, (S)-5-guanidino-2-{[3-(3-{[2-(4-[1,3,5]triazin-2-yl-piperazin-1-yl)-thiazol-4-ylmethyl]-amino}-benzenesulfonylamino)-thiophene-2-carbonyl]-amino}-pentanoic acid], the inhibition at 3 µM turned out to be 63%. Turning to `N=C(N)NCCC[C@H](NC(=O)c1sccc1NS(=O)(=O)c1cccc(NCc2csc(N3CCC(N)CC3)n2)c1)C(=O)O` [Compound 64, (S)-5-guanidino-2-{[3-(3-{[2-(4-amino-piperidin-1-yl)-thiazol-4-ylmethyl]-amino}-benzenesulfonylamino)-thiophene-2-carbonyl]-amino}-pentanoic acid], the inhibition at 3 µM is 72% and the inhibition at 30 µM stood at 92%. On to `N=C(N)NCCC[C@H](NC(=O)c1sccc1NS(=O)(=O)c1cccc(NCc2csc(N3CCN(CCO)CC3)n2)c1)C(=O)O` [Compound 77, (S)-5-Guanidino-2-({3-[3-({2-[4-(2-hydroxy-ethyl)-piperazin-1-yl]-thiazol-4-ylmethyl}-amino)-benzenesulfonylamino]-thiophene-2-carbonyl}-amino)-pentanoic acid], for which the IC50 amounted to 3700 nM and the inhibition at 3 µM is 47%. Take `N=C(N)NCCC[C@H](NC(=O)c1sccc1NS(=O)(=O)c1cc(-c2cccc(CN3CCN(c4ccccn4)CC3)c2)cc2c1OCC2)C(=O)O` [Compound 27, (S)-5-Guanidino-2-[(3-{5-[3-(4-pyridin-2-yl-piperazin-1-ylmethyl)-phenyl]-2,3-dihydro-benzofuran-7-sulfonylamino}-thiophene-2-carbonyl)-amino]-pentanoic acid]: the IC50 was 625 nM, the inhibition at 3 µM turned out to be 88% and the inhibition at 30 µM came out at 97%. In the case of `N=C(N)NCCC[C@H](NC(=O)c1sccc1NS(=O)(=O)c1cc(-c2ccccc2CNCc2cc[nH]n2)cc2c1OCC2)C(=O)O` [Compound 53, (S)-5-Guanidino-2-({3-[5-(2-{[(1H-pyrazol-3-ylmethyl)-amino]-methyl}-phenyl)-2,3-dihydro-benzofuran-7-sulfonylamino]-thiophene-2-carbonyl}-amino)-pentanoic acid], the inhibition at 3 µM turned out to be 54%. The same measure, in the same setting: to `N=C(N)NCCC[C@H](NC(=O)c1sccc1NS(=O)(=O)c1cc(-c2ccccc2CN2CCC(CC(=O)O)CC2)cc2c1OCC2)C(=O)O` [Compound 2, (S)-2-[(3-{5-[2-(4-Carboxymethyl-piperidin-1-ylmethyl)-phenyl]-2,3-dihydro-benzofuran-7-sulfonylamino}-thiophene-2-carbonyl)-amino]-5-guanidino-pentanoic acid] belongs 96%.
